In PubChem BioAssay AID248 (DTP/NCI, 2004):
Values joined by “and” are separate entries in the source; they are usually repeats but may differ in a detail not shown here. Identical values can stand only once. Toxic doses and inconclusive results are not listed. No stated cut-off is given here; in the data, active means T/C of 150% or more; inactive means T/C below 125%.

System: L1210 leukemia ip in BDF1 mice, survival T/C
Assay: NCI In Vivo Anticancer Drug Screen. Data for tumor model L1210 Leukemia (intraperitoneal) in B6D2F1 (BDF1) mice
Conditions: endpoint: mean survival time, higher = longer survival
Summary of the method: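 Ratio derived from survival: compound-dosed mice over vehicle-dosed mice, all bearing a transplantable tumor.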

[1] = dose: 100.0 mg/kg/injection, schedule: Q04DX002 (ip), vehicle: saline with Tween-80
[2] = dose: 200.0 mg/kg/injection, schedule: Q04DX002 (ip), vehicle: saline with Tween-80
[3] = dose: 400.0 mg/kg/injection, schedule: Q04DX002 (ip), vehicle: saline with Tween-80
[4] = dose: 100.0 mg/kg/injection, schedule: Q01DX001 (ip), vehicle: saline
[5] = dose: 200.0 mg/kg/injection, schedule: Q01DX001 (ip), vehicle: saline
[6] = dose: 400.0 mg/kg/injection, schedule: Q01DX001 (ip), vehicle: saline
[7] = dose: 50.0 mg/kg/injection, schedule: Q01DX001 (ip), vehicle: saline
[8] = dose: 100.0 mg/kg/injection, schedule: Q04DX003 (ip), vehicle: saline with Tween-80
[9] = dose: 200.0 mg/kg/injection, schedule: Q04DX003 (ip), vehicle: saline with Tween-80
[10] = dose: 400.0 mg/kg/injection, schedule: Q04DX003 (ip), vehicle: saline with Tween-80
[11] = dose: 50.0 mg/kg/injection, schedule: Q01DX009 (ip), vehicle: Klucel (hydroxypropylcellulose) (HPC)
[12] = dose: 100.0 mg/kg/injection, schedule: Q01DX009 (ip), vehicle: Klucel (hydroxypropylcellulose) (HPC)
[13] = dose: 100.0 mg/kg/injection, schedule: Q04DX003 (ip), vehicle: Klucel (hydroxypropylcellulose) (HPC)
[14] = dose: 200.0 mg/kg/injection, schedule: Q01DX009 (ip), vehicle: Klucel (hydroxypropylcellulose) (HPC)
[15] = dose: 200.0 mg/kg/injection, schedule: Q04DX003 (ip), vehicle: Klucel (hydroxypropylcellulose) (HPC)
[16] = dose: 400.0 mg/kg/injection, schedule: Q01DX009 (ip), vehicle: Klucel (hydroxypropylcellulose) (HPC)
[17] = dose: 400.0 mg/kg/injection, schedule: Q04DX003 (ip), vehicle: Klucel (hydroxypropylcellulose) (HPC)
[18] = dose: 100.0 mg/kg/injection, schedule: Q01DX009 (ip), vehicle: saline with Tween-80
[19] = dose: 200.0 mg/kg/injection, schedule: Q01DX009 (ip), vehicle: saline with Tween-80
[20] = dose: 400.0 mg/kg/injection, schedule: Q01DX009 (ip), vehicle: saline with Tween-80
[21] = dose: 25.0 mg/kg/injection, schedule: Q01DX009 (ip), vehicle: Klucel (hydroxypropylcellulose) (HPC)

Measured: T/C

N#CCC(=O)N/N=C/c1cc(Cl)cc(Cl)c1O
inactive: [1] 108 % of control | [2] 97 % of control | [3] 93 % of control

NC(=O)OCC(O)COc1ccc(Cl)cc1 (centres undefined)
inactive: [4] 95 % of control | [5] 97 % of control | [6] 95 % of control

CCOC(=O)C(C(=O)OCC)c1cccc(Cl)c1
inactive: [7] 106 % of control | [4] 109 % of control | [5] 103 % of control | [6] 103 % of control

O=C(NCCc1nc(-c2nc(C(=O)O)cs2)cs1)c1ccccc1
inactive: [8] 103 % of control | [9] 94 % of control | [10] 92 % of control

Nc1nc2[nH]c(=O)cnc2c(=O)[nH]1
inactive: [11] 102 % of control | dose: 50.0 mg/kg/injection, schedule: Q04DX003 (ip), vehicle: Klucel (hydroxypropylcellulose) (HPC) 107 % of control | [12] 111 % of control | [13] 110 % of control | [14] 107 % of control | [15] 102 % of control | [16] 95 % of control | [17] 104 % of control

O=C(NC(=S)Nc1cccc(O)c1)c1ccco1
inactive: [18] 98 % of control | [8] 104 % of control | [19] 115 % of control | [9] 107 % of control | [20] 95 % of control | [10] 102 % of control

C/C=C1\CCC2C(=C1C)CC1C2CC=C2CC(OC(C)=O)CCC21C (centres undefined)
inactive: [12] 97 % of control | [13] 94 % of control | [14] 87 % of control | [15] 91 % of control | [16] 90 % of control | [17] 93 % of control

Cc1c(Cl)cccc1NC(=O)Nc1nccs1
inactive: dose: 50.0 mg/kg/injection, schedule: Q04DX003 (ip), vehicle: saline with Tween-80 103 % of control | [18] 101 % of control and 104 % of control | [1] 100 % of control and 103 % of control | [8] 101 % of control | [19] 100 % of control | [2] 95 % of control and 96 % of control | [9] 114 % of control | [3] 109 % of control

CC1=C2[C@H]3OC(=O)[C@@H](C)[C@@H]3CC[C@@]2(C)C=C/C1=N\O
inactive: [4] 101 % of control | [5] 98 % of control

S=P(NC1CCCCC1)(N1CC1)N1CC1
inactive: dose: 5.0 mg/kg/injection, schedule: Q01DX Z (ip), vehicle: carboxymethylcellulose (CMC) 122 % of control | dose: 20.0 mg/kg/injection, schedule: Q01DX Z (ip), vehicle: carboxymethylcellulose (CMC) 101 % of control

Cc1ccc(C)c(CNC(=O)C2CCCCC2C(=O)O)c1 (centres undefined)
inactive: [18] 101 % of control | [19] 112 % of control | [20] 109 % of control

CC(C)(C)C1CCC(N=C(N)CCl)CC1 (centres undefined)
inactive: dose: 6.25 mg/kg/injection, schedule: Q01DX009 (ip), vehicle: Klucel (hydroxypropylcellulose) (HPC) 98 % of control | dose: 12.5 mg/kg/injection, schedule: Q01DX009 (ip), vehicle: Klucel (hydroxypropylcellulose) (HPC) 102 % of control | dose: 12.5 mg/kg/injection, schedule: Q04DX002 (ip), vehicle: Klucel (hydroxypropylcellulose) (HPC) 103 % of control | [21] 98 % of control | dose: 25.0 mg/kg/injection, schedule: Q04DX002 (ip), vehicle: Klucel (hydroxypropylcellulose) (HPC) 100 % of control

CC(=O)OC1OC(CF)C(OC(C)=O)C1OC(C)=O (centres undefined)
inactive: [18] 92 % of control

COB1OB(OC)OB(OC)O1
inactive: dose: 500.0 mg/kg/injection, schedule: Q01DX Z (ip), vehicle: other 94 % of control | dose: 750.0 mg/kg/injection, schedule: Q01DX Z (ip), vehicle: other 104 % of control | dose: 1000.0 mg/kg/injection, schedule: Q01DX001 (ip), vehicle: carboxymethylcellulose (CMC) 109 % of control | dose: 1000.0 mg/kg/injection, schedule: Q01DX Z (ip), vehicle: other 107 % of control | dose: 1500.0 mg/kg/injection, schedule: Q01DX Z (ip), vehicle: other 118 % of control | dose: 2000.0 mg/kg/injection, schedule: Q01DX001 (ip), vehicle: carboxymethylcellulose (CMC) 113 % of control | dose: 3000.0 mg/kg/injection, schedule: Q01DX001 (ip), vehicle: carboxymethylcellulose (CMC) 113 % of control

CCC(CC)C(=O)O.[Ag]
inactive: [4] 101 % of control

CC1(C)[C@H]2CC[C@@]1(C)C(=O)[C@H]2[N+](=O)[O-]
inactive: [13] 103 % of control | [15] 86 % of control | [17] 93 % of control

COc1ccc(/C=N/N=c2\[nH][nH]/c(=N\N=C\c3ccc(OC)c4ccccc34)c3ccccc23)c2ccccc12
inactive: [7] 100 % of control | [4] 100 % of control | [5] 103 % of control | [6] 105 % of control

CC[n+]1ccc(/C=C\c2cccc([N+](=O)[O-])c2)cc1
inactive: [21] 91 % of control | [11] 91 % of control | [12] 98 % of control | [13] 93 % of control

COc1cc(CC(=O)NO)cc(OC)c1OC
inactive: dose: 50.0 mg/kg/injection, schedule: Q01DX005 (ip), vehicle: saline with Tween-80 93 % of control | dose: 50.0 mg/kg/injection, schedule: Q01DX009 (ip), vehicle: saline with Tween-80 100 % of control | dose: 100.0 mg/kg/injection, schedule: Q01DX005 (ip), vehicle: saline with Tween-80 110 % of control | [18] 96 % of control | dose: 200.0 mg/kg/injection, schedule: Q01DX005 (ip), vehicle: saline with Tween-80 93 % of control | [19] 100 % of control

CC[Si](CC)(CC)C(C)Cl (centres undefined)
inactive: [13] 101 % of control | [15] 101 % of control | [17] 98 % of control

COC(=O)CC(=O)c1ccc2ccccc2n1
inactive: dose: 50.0 mg/kg/injection, schedule: Q01DX001 (ip), vehicle: carboxymethylcellulose (CMC) 108 % of control | dose: 100.0 mg/kg/injection, schedule: Q01DX001 (ip), vehicle: carboxymethylcellulose (CMC) 100 % of control | dose: 200.0 mg/kg/injection, schedule: Q01DX001 (ip), vehicle: carboxymethylcellulose (CMC) 97 % of control | dose: 400.0 mg/kg/injection, schedule: Q01DX001 (ip), vehicle: carboxymethylcellulose (CMC) 105 % of control

COC(=O)c1ccccc1NC(=O)Nc1cc(OC)ccc1OC
inactive: [12] 98 % of control | [14] 102 % of control | [16] 93 % of control
